Measured values published in ChEMBL document CHEMBL3421536, “Identification of 4-(4-nitro-2-phenethoxyphenyl)pyridine as a promising new lead for discovering inhibitors of both human and rat 11β-Hydroxylase” (Eur J Med Chem, 2015).
pIC50: −log10 of the molar value.

Tests used:
Homo sapiens = species on record: Homo sapiens; test: Selectivity index, ratio of IC50 for human CYP11B2 to IC50 for human CYP11B1
[1] = target: T1, Cytochrome P450 11B1, mitochondrial (Homo sapiens, UniProt P15538); test: Inhibition of human CYP11B1 expressed in hamster fibroblast using 100 nM [3H]-11-deoxycorticosterone as substrate after 25 mins by HPLC analysis
T1 sequence (P15538 whole entry): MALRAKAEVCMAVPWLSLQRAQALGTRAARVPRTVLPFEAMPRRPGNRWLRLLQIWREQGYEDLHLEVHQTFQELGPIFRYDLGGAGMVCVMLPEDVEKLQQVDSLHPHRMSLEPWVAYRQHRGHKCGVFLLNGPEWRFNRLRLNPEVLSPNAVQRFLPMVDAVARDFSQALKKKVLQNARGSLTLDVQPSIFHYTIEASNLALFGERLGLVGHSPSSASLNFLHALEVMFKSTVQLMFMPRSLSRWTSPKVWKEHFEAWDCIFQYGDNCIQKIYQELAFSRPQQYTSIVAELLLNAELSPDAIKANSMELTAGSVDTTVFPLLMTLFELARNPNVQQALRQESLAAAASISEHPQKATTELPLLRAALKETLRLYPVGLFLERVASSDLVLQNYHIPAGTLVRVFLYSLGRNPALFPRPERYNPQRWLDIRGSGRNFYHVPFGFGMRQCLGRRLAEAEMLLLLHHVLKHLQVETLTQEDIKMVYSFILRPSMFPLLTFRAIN

[2] = target: T2, Cytochrome P450 11B2, mitochondrial (Homo sapiens, UniProt P19099); test: Inhibition of human CYP11B2 expressed in hamster fibroblast using 100 nM [3H]-11-deoxycorticosterone as substrate after 45 mins by HPLC analysis
T2 sequence (P19099 whole entry): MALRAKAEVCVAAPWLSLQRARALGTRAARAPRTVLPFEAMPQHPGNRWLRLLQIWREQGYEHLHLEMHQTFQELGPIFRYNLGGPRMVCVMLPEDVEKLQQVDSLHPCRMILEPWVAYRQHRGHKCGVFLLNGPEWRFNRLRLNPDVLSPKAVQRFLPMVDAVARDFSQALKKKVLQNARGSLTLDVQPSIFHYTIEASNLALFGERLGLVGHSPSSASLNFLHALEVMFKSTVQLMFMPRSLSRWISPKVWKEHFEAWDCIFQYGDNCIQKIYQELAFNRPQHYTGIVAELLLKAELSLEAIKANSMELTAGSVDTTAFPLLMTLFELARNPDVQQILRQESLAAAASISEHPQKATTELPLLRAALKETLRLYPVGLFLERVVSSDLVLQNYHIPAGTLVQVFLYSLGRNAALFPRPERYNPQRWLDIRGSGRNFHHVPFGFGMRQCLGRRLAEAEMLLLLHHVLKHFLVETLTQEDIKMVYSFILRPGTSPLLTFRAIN

[3] = Retention time of the compound by HPLC analysis; format: physicochemical
Aromatase = target: T3, Aromatase (Homo sapiens, UniProt P11511); test: Inhibition of human CYP19 expressed in hamster fibroblast using 500 nM [1beta-3H] androstenedione as substrate by HPLC analysis
T3 sequence (P11511 whole entry): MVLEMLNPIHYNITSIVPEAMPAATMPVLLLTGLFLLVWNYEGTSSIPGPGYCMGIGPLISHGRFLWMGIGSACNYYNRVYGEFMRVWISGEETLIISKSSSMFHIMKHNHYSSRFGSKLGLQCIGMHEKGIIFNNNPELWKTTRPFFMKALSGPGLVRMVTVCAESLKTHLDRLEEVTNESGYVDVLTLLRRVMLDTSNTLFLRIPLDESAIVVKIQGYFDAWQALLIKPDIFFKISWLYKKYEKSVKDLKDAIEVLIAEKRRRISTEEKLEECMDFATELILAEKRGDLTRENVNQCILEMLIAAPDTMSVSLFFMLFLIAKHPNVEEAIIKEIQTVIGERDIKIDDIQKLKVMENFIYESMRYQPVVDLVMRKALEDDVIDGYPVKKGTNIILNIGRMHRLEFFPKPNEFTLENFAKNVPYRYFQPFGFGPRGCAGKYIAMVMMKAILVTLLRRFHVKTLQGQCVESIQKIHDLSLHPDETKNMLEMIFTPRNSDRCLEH

[4] = target: T4, Cytochrome P450 11B1, mitochondrial (Rattus norvegicus, UniProt P15393); test: Inhibition of rat CYP11B1 expressed in hamster fibroblast using 500 nM [3H]-11-deoxycorticosterone as substrate after 7 hrs by HPLC analysis
T4 sequence (P15393 whole entry): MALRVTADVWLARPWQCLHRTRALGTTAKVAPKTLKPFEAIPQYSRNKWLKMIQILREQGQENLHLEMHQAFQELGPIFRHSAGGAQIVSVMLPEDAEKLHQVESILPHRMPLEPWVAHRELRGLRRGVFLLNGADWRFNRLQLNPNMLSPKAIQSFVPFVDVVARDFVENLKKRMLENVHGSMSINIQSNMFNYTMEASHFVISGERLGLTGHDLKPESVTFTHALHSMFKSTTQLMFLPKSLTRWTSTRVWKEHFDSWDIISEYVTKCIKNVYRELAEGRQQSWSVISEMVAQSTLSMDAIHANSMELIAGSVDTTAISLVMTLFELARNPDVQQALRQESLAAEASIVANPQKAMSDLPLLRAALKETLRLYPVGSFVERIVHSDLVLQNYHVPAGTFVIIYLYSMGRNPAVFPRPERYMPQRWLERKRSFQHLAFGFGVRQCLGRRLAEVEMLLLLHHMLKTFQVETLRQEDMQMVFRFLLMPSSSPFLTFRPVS

SMILES | Selectivity Index (Homo sapiens) | pIC50 [1] | pIC50 [2] | Retention_time [3] [min] | pIC50 (Aromatase) | pIC50 [4]
FC(F)(F)c1ccc(-c2cccnc2)c(OCCc2ccccc2)c1 | 1.2 | 6.09 | 6.02 | 10.3 | – | –
Cc1cncc(Cc2ccc(-c3ccccc3)nc2)c1 | 15.1 | – | – | – | < 5.30 | –
N#Cc1ccc(-c2cccnc2)c(OCCc2ccccc2)c1 | 1.6 | 7.42 | 7.20 | 8.85 | 6.78 | 6.27
O=[N+]([O-])c1ccc(-c2cccnc2)c(OCc2ccccc2)c1 | 0.7 | 7.64 | 7.77 | 9.07 | 6.84 | 5.83
CN(C)C(=O)c1ccc(-c2ccncc2)c(OCCc2ccccc2)c1 | 0.7 | 5.94 | 6.09 | 7.51 | – | –
O=[N+]([O-])c1ccc(-c2cccnc2)c(OCCCc2ccccc2)c1 | 2.5 | 8.22 | 7.82 | 9.28 | 6.86 | 5.68
CC(C)(C(=O)c1cccnc1)c1cccnc1 [METYRAPONE] | – | – | – | – | < 5.30 | 5.34
c1ccc(-c2ccc(Cn3ccnc3)cn2)cc1 | 13.3 | – | – | – | < 5.30 | < 5.00
c1ccc(CCOc2cccnc2-c2ccncc2)cc1 | 0.9 | 5.57 | 5.61 | 7.91 | – | –
Fc1ccc(-c2ccncc2)c(OCCc2ccccc2)c1 | 1.2 | 7.22 | 7.13 | 9.32 | – | –
CC(=O)Nc1ccc(-c2cccnc2)c(OCc2ccccc2)c1 | 2.3 | 6.55 | 6.19 | 7.25 | – | –
Nc1ccc(-c2cccnc2)c(OCc2ccccc2)c1 | 0.5 | 6.27 | 6.59 | 5.63 | 6.35 | –
CN(C)C(=O)c1ccc(-c2cccnc2)c(OCCc2ccccc2)c1 | 0.5 | 6.23 | 6.52 | 7.56 | – | –
Fc1ccc(-c2cccnc2)c(OCCc2ccccc2)c1 | 1.6 | 7.29 | 7.08 | 9.57 | – | –
O=C1CCc2cc(-c3cccnc3)c(OCc3ccccc3)cc2N1 | 0.5 | – | – | – | – | 5.82
O=C(Nc1ccc(-c2cccnc2)c(OCc2ccccc2)c1)c1ccc(F)cc1 | 0.6 | 5.92 | 6.12 | 8.67 | – | –
O=[N+]([O-])c1ccc(-c2cccnc2)c(OCCc2ccccc2)c1 | 4.1 | 7.89 | 7.28 | 9.13 | 7.12 | 5.88
COc1ccc(-c2ccncc2)c(OCCc2ccccc2)c1 | 1.5 | 7.34 | 7.15 | 9.2 | – | –
FC(F)(F)c1ccc(-c2ccncc2)c(OCCc2ccccc2)c1 | 0.9 | 7.59 | 7.62 | 10.13 | 5.68 | –
COc1ccc(-c2cccnc2)c(OCCc2ccccc2)c1 | 1.3 | 6.74 | 6.64 | 9.07 | – | –
COc1cc2c(cc1-c1cccnc1)CCC(=O)N2 | 0.1 | 5.60 | – | – | – | –
O=[N+]([O-])c1ccc(-c2ccncc2)c(OCCCc2ccccc2)c1 | 2.4 | 8.10 | 7.74 | 9.33 | 5.30 | 6.43
O=[N+]([O-])c1ccc(-c2ccncc2)c(OCc2ccccc2)c1 | 1.7 | 7.30 | 7.06 | 9.02 | 5.62 | 6.19
O=[N+]([O-])c1ccc(-c2ccncc2)cc1OCCc1ccccc1 | 0.6 | 5.92 | 6.15 | 9.57 | – | –
O=[N+]([O-])c1ccc(Cc2ccncc2)c(OCCc2ccccc2)c1 | 2.7 | 8.22 | 7.80 | 9.55 | 6.80 | 5.55
O=[N+]([O-])c1ccc(-c2cccnc2)cc1OCCc1ccccc1 | 0.9 | 6.29 | 6.35 | 9.8 | – | –
N#Cc1ccc(-c2ccncc2)c(OCCc2ccccc2)c1 | 1.9 | 7.92 | 7.64 | 8.71 | 5.81 | 6.36
O=[N+]([O-])c1ccc(Cc2cccnc2)c(OCCc2ccccc2)c1 | 1.3 | 6.74 | 6.61 | 9.7 | 6.89 | 6.15
O=[N+]([O-])c1ccc(-c2ccncc2)c(OCCc2ccccc2)c1 | 3.5 | 8.70 | 8.15 | 9.21 | 5.72 | 6.79
c1ccc(CCOc2cccnc2-c2cccnc2)cc1 | 0.9 | 5.78 | 5.84 | 7.73 | – | –
